Assay results: patent US9561228B2 (Celgene Avilomics Research, Inc., priority 2013, dated 2017)

Target: T1, MEK1 activated ERK1 (Homo sapiens, UniProt P27361)
T1 construct: purchased Millipore (Billerica, Mass.) 14-439-K
Assay: Omnia continuous-read kinase assay for potency against MEK1 activated ERK1
Format: biochemical
Conditions: MEK1 activated ERK1, ATP at KM; read-out: ERK1 Omnia WT ATP KM IC50
Method in brief: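 Apparent IC50 came from initial reaction slopes (RFU vs time) plotted against log inhibitor with a variable-slope fit. Reactions were started with ERK1 (4 nM final) added to 50 μM ATP, roughly at its appKM, and 10 μM Sox-conjugated ST17 peptide in 20 mM Tris pH 7.5, 5 mM MgCl2. Fluorescence was monitored every 71 seconds.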

T1 sequence (P27361 whole entry): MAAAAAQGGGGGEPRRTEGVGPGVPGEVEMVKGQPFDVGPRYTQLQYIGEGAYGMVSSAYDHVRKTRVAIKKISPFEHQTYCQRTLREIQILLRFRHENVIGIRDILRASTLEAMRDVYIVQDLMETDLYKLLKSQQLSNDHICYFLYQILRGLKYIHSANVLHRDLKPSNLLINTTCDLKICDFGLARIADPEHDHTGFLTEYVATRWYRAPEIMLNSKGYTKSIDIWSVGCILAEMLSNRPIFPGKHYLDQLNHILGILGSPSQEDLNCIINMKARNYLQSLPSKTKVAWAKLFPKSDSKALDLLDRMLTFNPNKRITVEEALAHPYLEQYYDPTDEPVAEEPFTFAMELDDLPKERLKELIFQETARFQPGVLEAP

SMILES | IC50
C=CC(=O)Nc1cc(C(F)(F)F)ccc1Nc1nc(Nc2cc(OC)ncc2C)ncc1C(F)(F)F [Compound I-323, N-(2-((2-((2-methoxy-5-methylpyridin-4-yl)amino)-5-(trifluoromethyl)pyrimidin-4-yl)amino)-5-(trifluoromethyl)phenyl)acrylamide] | 0.101 to 0.5 µM
C=CS(=O)(=O)Nc1cc(C)ccc1Nc1nc(Nc2cc(OC)ncc2C)ncc1C(F)(F)F [Compound I-333, N-(2-((2-((2-methoxy-5-methylpyridin-4-yl)amino)-5-(trifluoromethyl)pyrimidin-4-yl)amino)-5-methylphenyl)ethenesulfonamide] | 0.101 to 0.5 µM
C=CC(=O)Nc1cc(C)ccc1Nc1nc(Nc2cc(OC)nc(N(C)C3CC3)c2)ncc1C(F)(F)F [Compound I-342, N-(2-((2-((2-(cyclopropyl(methyl)amino)-6-methoxypyridin-4-yl)amino)-5-(trifluoromethyl)pyrimidin-4-yl)amino)-5-methylphenyl)acrylamide] | 0.501 to 0.999 µM
C=CC(=O)Nc1cc(OC)ccc1Nc1nc(Nc2cc(Cl)nc(OC)c2)ncc1Cl [Compound I-245, N-(2-((5-chloro-2-((2-chloro-6-methoxypyridin-4-yl)amino)pyrimidin-4-yl)amino)-5-methoxyphenyl)acrylamide] | 0.101 to 0.5 µM
C=CC(=O)Nc1cc(C)ccc1Nc1nc(Nc2cc(OC)nc(N(C)CCOC)c2)ncc1C(F)(F)F [Compound I-336, N-(2-((2-((2-methoxy-6-((2-methoxyethyl)(methyl)amino)pyridin-4-yl)amino)-5-(trifluoromethyl)pyrimidin-4-yl)amino)-5-methylphenyl)acrylamide] | 0.501 to 0.999 µM
C=CC(=O)Nc1cc(C)ccc1Nc1nc(Nc2cc(OC)nc(N3CCN(C)CC3)c2)ncc1C(F)(F)F [Compound I-325, N-(2-((2-((2-methoxy-6-(4-methylpiperazin-1-yl)pyridin-4-yl)amino)-5-(trifluoromethyl)pyrimidin-4-yl)amino)-5-methylphenyl)acrylamide] | 0.101 to 0.5 µM
C=CC(=O)Nc1cc(C)ccc1Nc1nc(Nc2cc(OC)nc(N3CCOCC3)c2)ncc1C(F)(F)F [Compound I-94, N-(2-((2-((2-Methoxy-6-morpholinopyridin-4-yl)amino)-5-(trifluoromethyl)pyrimidin-4-yl)amino)-5-methylphenyl)acrylamide] | 0.101 to 0.5 µM
C=CC(=O)Nc1cc(C)ccc1Nc1nc(Nc2cc(C)nc(OC)c2)ncc1C(F)(F)F [Compound I-295, N-(2-((2-((2-methoxy-6-methylpyridin-4-yl)amino)-5-(trifluoromethyl)pyrimidin-4-yl)amino)-5-methylphenyl)acrylamide] | 0.101 to 0.5 µM
C=CC(=O)Nc1cc(C)ccc1Nc1nc(Nc2cc(C(N)=O)ccn2)ncc1Cl [Compound I-238, 2-((4-((2-acrylamido-4-methylphenyl)amino)-5-chloropyrimidin-2-yl)amino)isonicotinamide] | 0.101 to 0.5 µM
C=CC(=O)Nc1ccccc1Nc1nc(Nc2cc(Cl)nc(OC)c2)ncc1Cl [Compound I-246, N-(2-((5-chloro-2-((2-chloro-6-methoxypyridin-4-yl)amino)pyrimidin-4-yl)amino)phenyl)acrylamide] | 0.101 to 0.5 µM
C=CC(=O)Nc1cc(C)ccc1Nc1nc(Nc2cc(OC)ccc2C)ncc1C(F)(F)F [Compound I-341, N-(2-((2-((5-methoxy-2-methylphenyl)amino)-5-(trifluoromethyl)pyrimidin-4-yl)amino)-5-methylphenyl)acrylamide] | 0.501 to 0.999 µM
C=CC(=O)Nc1cc(C)ccc1Nc1nc(Nc2cc(OC)nc(N3CCN(CC)CC3)c2)ncc1C(F)(F)F [Compound I-89, N-(2-((2-((2-(4-Ethylpiperazin-1-yl)-6-methoxypyridin-4-yl)amino)-5-(trifluoromethyl)pyrimidin-4-yl)amino)-5-methylphenyl)acrylamide] | 0.101 to 0.5 µM

Further lines, results first:

IC50 | SMILES
0.501 to 0.999 µM | C=CC(=O)Nc1cc(C)ccc1Nc1nc(Nc2cc(NC3CC3)nc(OC)c2)ncc1C(F)(F)F [Compound I-337, N-(2-((2-((2-(cyclopropylamino)-6-methoxypyridin-4-yl)amino)-5-(trifluoromethyl)pyrimidin-4-yl)amino)-5-methylphenyl)acrylamide]
0.101 to 0.5 µM | C=CC(=O)Nc1cc(C)ccc1Nc1nc(Nc2cc(N[C@H]3CC[C@@H](O)CC3)nc(OC)c2)ncc1C(F)(F)F [Compound I-326, N-(2-((2-((2-((cis-4-hydroxycyclohexyl)amino)-6-methoxypyridin-4-yl)amino)-5-(trifluoromethyl)pyrimidin-4-yl)amino)-5-methylphenyl)acrylamide]
0.101 to 0.5 µM | C=CC(=O)Nc1ccccc1Nc1nc(Nc2ccnc(F)c2)ncc1C(F)(F)F [Compound I-287, N-(2-((2-((2-Fluoropyridin-4-yl)amino)-5-(trifluoromethyl)pyrimidin-4-yl)amino)phenyl)acrylamide]
0.501 to 0.999 µM | C=CC(=O)Nc1ccccc1Nc1nc(N[C@@H]2CCN(C(C)=O)C2)ncc1C(F)(F)F [Compound I-60, (R)—N-(2-((2-((1-Acetylpyrrolidin-3-yl)amino)-5-(trifluoromethyl)pyrimidin-4-yl)amino)phenyl)acrylamide]
0.101 to 0.5 µM | C=CC(=O)Nc1ccccc1Nc1nc(Nc2cc(OC)ccc2C)ncc1C(F)(F)F [Compound I-340, N-(2-((2-((5-methoxy-2-methylphenyl)amino)-5-(trifluoromethyl)pyrimidin-4-yl)amino)phenyl)acrylamide]
0.501 to 0.999 µM | C=CC(=O)Nc1ccccc1Nc1nc(N[C@H]2CCN(C(=O)OC)C2)ncc1C(F)(F)F [Compound I-59, (S)-methyl 3-((4-((2-Acrylamidophenyl)amino)-5-(trifluoromethyl)pyrimidin-2-yl)amino)pyrrolidine-1-carboxylate]
0.101 to 0.5 µM | C=CC(=O)Nc1ccccc1Nc1nc(Nc2cc(OC)cc(OC)c2)ncc1C(F)(F)F [Compound I-338, N-(2-((2-((3,5-dimethoxyphenyl)amino)-5-(trifluoromethyl)pyrimidin-4-yl)amino)phenyl)acrylamide]
0.101 to 0.5 µM | C=CC(=O)Nc1ccccc1Nc1nc(Nc2cc(OC)nc(N3CCCCC3)c2)ncc1C(F)(F)F [Compound I-282, N-(2-((2-((2-Methoxy-6-(piperidin-1-yl)pyridin-4-yl)amino)-5-(trifluoromethyl)pyrimidin-4-yl)amino)phenyl)acrylamide]
< 0.1 µM | C=CC(=O)Nc1ccccc1Nc1nc(Nc2cc(N[C@H]3CC[C@@H](O)CC3)nc(OC)c2)ncc1C(F)(F)F [Compound I-292]
0.101 to 0.5 µM | C=CC(=O)Nc1ccccc1Nc1nc(Nc2ccnnc2)ncc1C(F)(F)F [Compound I-293, N-(2-((2-(Pyridazin-4-ylamino)-5-(trifluoromethyl)pyrimidin-4-yl)amino)phenyl)acrylamide]
< 0.1 µM | C=CC(=O)Nc1ccccc1Nc1nc(N[C@H]2CCCN(C(C)=O)C2)ncc1Cl [Compound I-115, (S)—N-(2-((2-((1-acetylpiperidin-3-yl)amino)-5-chloropyrimidin-4-yl)amino)phenyl)acrylamide]
0.101 to 0.5 µM | C=CC(=O)Nc1ccccc1Nc1nc(N[C@H]2CCN(S(C)(=O)=O)C2)ncc1C(F)(F)F [Compound I-58, (S)—N-(2-((2-((1-(Methylsulfonyl)pyrrolidin-3-yl)amino)-5-(trifluoromethyl)pyrimidin-4-yl)amino)phenyl)acrylamide]
